In patent publication US7941211B2, “Preloading with macular pigment to improve photodynamic treatment of retinal vascular disorders” (ZeaVision, LLC., priority 2003, dated 2011):
Entries after “also recorded” stand apart in the source; their conditions may differ.

Legend:
inflammatory cytokines = details: cited from earlier work
retina = details: in vivo, po; cited from earlier work
[1] = target: Pi isoform of glutathione-S-transferase (GSTP1) (Homo sapiens, UniProt P09211); details: in vitro conditions; cited from earlier work
[2] = tested on: wet macular degeneration (subfoveal CNV); assay: Case report: zeaxanthin pre-loading before verteporfin-laser PDT (Example 1); type: in vivo, human
Source text: Such a candidate became known to the Applicant, in mid to late 2003. Because of certain personal and business connections, they were contacted by a person, who had been told that (i) […] eyesight was deteriorating rapidly, due to macular degeneration, and (ii) they should take care of any business, financial, legal, and other matters as soon as possible, before […] eyesight became even worse. This person made their plight (and their severe depression, due to the very negative prognosis they had received from an expert) known to the Applicant. In response, the Applicant informed the patient that they (the Applicant) had made a number of charitable donations to support research at the Johns Hopkins School of Medicine, where some of the world's foremost experts in macular degeneration work. […] (the Applicant) offered to see whether they could obtain expedited treatment for the patient, by making some phone calls to people they knew who worked there. The patient accepted that offer, and was seen and treated not long thereafter, by a top expert at the Wilmer Eye Institute, a highly respected eye care and research institute affiliated with Johns Hopkins.
This patient had been taking zeaxanthin for a number of weeks, prior to being examined and treated at the Wilmer Eye Institute. Their dosage was believed to be 20 milligrams per day, from taking two 10 milligram capsules (purchased from ZeaVision LLC) per day, usually with meals. They also took various other vitamin supplements during the course of their treatment, and afterwards.
An adult at the time, was suffering from wet macular degeneration.
At about that time, the patient began taking zeaxanthin supplements. It is believed that their typical daily dosage was 20 milligrams, from two 10 milligram capsules per day, usually taken with meals. The patient is also believed to have taken various other nutritional supplements during the relevant span of time, although their full contents, dosages, and durations are not known.
According to notes created by the ophthalmologist at the Wilmer Institute, obtained by the Applicant with approval from the patient, the patient suffered from subfoveal CNV in their right eye. […] According to the patient, the ophthalmologist advised them that their course of treatment likely would require 5 or 6 verteporfin-laser treatments, over a span of up to about 2 years.
His left eye was similar in appearance but questionable in extent, and there was no proven disease progression. Therefore, the ophthalmologist recommended careful monitoring but no PDT at that time.
Despite that advice, the patient continued taking zeaxanthin.

[3] = even at very high dosages; cited from earlier work
wet macular degeneration = assay: ZeaVision customer survey: zeaxanthin supplements and PDT treatment (Example 2); type: in vivo, human
Source text: In the summer of 2004, the assignee company (ZeaVision LLC) began searching for customers who were: (i) taking zeaxanthin supplements they had purchased from ZeaVision, and (ii) had received one or more PDT treatments, for wet macular degeneration. They did this by sending postcards to customers, asking them to contact ZeaVision if they had received PDT treatment. Those customers who responded were briefly interviewed by phone by the customer support staff, who asked questions and filled in a worksheet that had been prepared to help guide the interviews. Most of these patients with age-related eye problems are in their 70's or 80's. They could not always provide exact dates when talking from memory during a phone call, and no efforts were made to check their actual medical records, or to consult with the ophthalmologists who performed their PDT treatments. In addition, nearly all of these patients were taking one or more additional vitamin supplements, such as lutein, Coenzyme Q10, and/or the AREDS formulation (all of which are commonly recommended by friends, relatives, and physicians), and at least one patient (identified as patient one, below) also received a steroid injection as part of their PDT therapy. […] Responses from patients who had been taking zeaxanthin for at least a month prior to a PDT treatment include the following examples: […]

poultry = details: compared against preparation of dietary 3R,3′R stereoisomer; test in Spain; cited from earlier work
[4] = tested on: vascular endothelial growth factor (VEGF); details: verteporfin-laser treatment; cited from earlier work
[5] = tested on: inflammatory chorioretinal diseases; details: in vivo; cited from earlier work
[6] = right eye, January 2004, six months after PDT
[7] = right eye, October 2003, three months after PDT, zeaxanthin 20 mg/day
[8] = Patient one, ZX from June 2004, first and only PDT about 2 months later, also steroid injection

Chain of Pi isoform of glutathione-S-transferase (GSTP1) (P09211 whole entry, canonical isoform): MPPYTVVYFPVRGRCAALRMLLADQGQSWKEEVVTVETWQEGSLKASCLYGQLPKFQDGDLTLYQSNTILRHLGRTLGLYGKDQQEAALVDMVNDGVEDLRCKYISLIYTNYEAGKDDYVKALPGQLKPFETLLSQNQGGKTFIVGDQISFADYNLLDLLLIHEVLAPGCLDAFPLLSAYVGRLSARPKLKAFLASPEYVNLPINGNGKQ

CC1=C(/C=C/C(C)=C/C=C/C(C)=C/C=C/C=C(C)/C=C/C=C(C)/C=C/C2=C(C)C(=O)[C@@H](O)CC2(C)C)C(C)(C)C[C@H](O)C1=O [astaxanthin]
effect on inflammatory and similar responses (inflammatory cytokines): can help reduce inflammatory and similar responses

CC1=C(/C=C/C(C)=C/C=C/C(C)=C/C=C/C=C(C)/C=C/C=C(C)/C=C/C2=C(C)C(=O)CCC2(C)C)C(C)(C)CCC1=O [canthaxanthin]
retinal deposition (retina): abnormal retinal deposition

CC1=C[C@H](O)CC(C)(C)[C@H]1/C=C/C(C)=C/C=C/C(C)=C/C=C/C=C(C)/C=C/C=C(C)/C=C/C1=C(C)C[C@@H](O)CC1(C)C [lutein, reference compound]
binding affinity of macular enzymes [1]: will not bind to lutein with any significant affinity

CC1=C(/C=C/C(C)=C/C=C/C(C)=C/C=C/C=C(C)/C=C/C=C(C)/C=C/C2=C(C)C[C@@H](O)CC2(C)C)C(C)(C)C[C@H](O)C1 [zeaxanthin]
findings in the eye not previously treated with PDT ([2]; left eye, March 2004, patient taking zeaxanthin, no PDT so far): growth of choroidal neovascularization compared to January 2004
ophthalmologist's assessment of PDT results, as orally reported by the patient ([2]; left eye, three months after PDT of March 2004): results were good
biomicroscopic findings (subretinal hemorrhage) [2, 6]: clearing of the subretinal hemorrhage that was noted along the inferonasal aspect of the treated area
fluorescein angiography [2, 6]: still showed some increased staining in the area where the hemorrhage had cleared
leakage from CNV ([2]; right eye, March 2004): no new leakage from CNV to suggest the need for any treatment
biomicroscopic findings (subretinal hemorrhage and fluid) [2, 7]: clearing of much of the subretinal hemorrhage along the nasal aspect of the posterior pole with no new subretinal fluid
fluorescein angiography [2, 7]: no fluorescein leakage to suggest the need for any additional treatment at this time except at the inferonasal aspect of the treated area
ophthalmologist's assessment of the PDT results ([2]; right eye, three months after first PDT, zeaxanthin 20 mg/day): much better than expected; also recorded: far better than expected
pathological changes in animal tests [3]: did not cause any pathological changes, of any sort
need for further PDT sessions (doctor's statement) (wet macular degeneration; Patient four, ZX begun before second PDT session, first session without ZX did not stabilize): appeared to not need any more PDT sessions
need for further PDT treatments (doctor's statement) (wet macular degeneration; [8]): may not need to have any more treatments
results of PDT treatment (wet macular degeneration; [8]): results were good
ophthalmologist's assessment of eyes at followup (wet macular degeneration; Patient three, October 2004): their eyes had stabilized
doctor's assessment of eyes at followup (wet macular degeneration; Patient three, ZX for some months before second PDT in May 2004, late June 2004): their eyes had gotten better, and appeared to be stable
vision in PDT-treated left eye (wet macular degeneration; Patient two, 10 mg/day ZX from May 2004, four PDT sessions April-October 2004, October 2004): 20/30
patient's description of their results (wet macular degeneration; Patient two, 10 mg/day ZX, October 2004): super-good
ophthalmologist's assessment of sight (wet macular degeneration; Patient two, 10 mg/day ZX, PDT on left eye): sight restored and improved
adverse side effects (wet macular degeneration; all patients surveyed): did not cause any adverse side effects of any sort
interference with efficacy of PDT treatment (wet macular degeneration; all patients surveyed): did not interfere with the efficacy of PDT treatment
overall benefit (wet macular degeneration; in at least some patients): provided at least some benefits
condition of PDT-treated eye (doctor's statement) (wet macular degeneration; parent of respondent OD, PDT on right eye after three months of ZX): appeared to be stable
condition of fellow eye with dry macular degeneration (respondents' statements) (wet macular degeneration; several respondents with PDT in one eye only): remain stable, or in some cases improve
binding affinity of macular enzymes [1]: relatively high affinity

meso-zeaxanthin
performance as colour additive for poultry (poultry): did not perform satisfactorily

verteporfin
release of hormones that increase blood vessel growth (VEGF) [4]: stimulates, rather than suppresses
performance relative to verteporfin treatment of wet macular degeneration [5]: tended to perform better, and more effectively
